Assay results taken from US10189794B2, “Heteroaryl compounds and uses thereof” (Celgene CAR LLC, priority 2013, dated 2019).

Tested on: Huh7 cells
Test: Cell proliferation, Huh7 (CellTiter Glo)
Format: cell-based
Conditions: Homo sapiens, Huh-7; Huh7; 120 hr; read-out: Cell Proliferation GI50 (nM) HUH
Method: The growth inhibition (GI50) values were determined by Graph Pad Prism.

SMILES	GI50 [nM]
C=CC(=O)NC1CCCCC1Nc1ncc2c(n1)N(CCF)C(=O)N(c1c(Cl)c(OC)cc(OC)c1Cl)C2 (racemic) [I-106]	> 1000
C=CC(=O)NC1CN(C)CC1Nc1ncc2c(n1)N(C)C(=O)N(c1c(Cl)c(OC)cc(OC)c1Cl)C2 (racemic) [I-138]	> 1000
C=CC(=O)NC1CN(C(C)=O)CC1Nc1ncc2c(n1)N(C)C(=O)N(c1c(Cl)c(OC)cc(OC)c1Cl)C2 (racemic) [I-139]	501 to 999
C=CC(=O)NC1CN(C2CCN(C)CC2)CC1Nc1ncc2c(n1)N(C)C(=O)N(c1c(Cl)c(OC)cc(OC)c1Cl)C2 (racemic) [I-154]	> 1000
C=CC(=O)Nc1ccccc1Nc1ncc2c(n1)N(CC(O)CO)C(=O)N(c1cc(OC)cc(OC)c1)C2 (stereo not drawn) [I-33]	> 1000
C=CC(=O)Nc1ccccc1Nc1ncc2c(n1)N(C1CCCN(C(=O)OC(C)(C)C)C1)C(=O)N(c1cc(OC)cc(OC)c1)C2 (stereo not drawn) [I-36]	> 1000
C=CC(=O)Nc1cc(C)ccc1Nc1ncc2c(n1)N(C)C(=O)N(c1cc(OC)cc(OC)c1)C2 [I-41]	> 1000
C=CC(=O)Nc1cc(C(F)(F)F)ccc1Nc1ncc2c(n1)N(C)C(=O)N(c1cc(OC)cc(OC)c1)C2 [I-42]	> 1000
C=CC(=O)Nc1ccccc1Nc1ncc2c(n1)N(C1CCCNC1)C(=O)N(c1cc(OC)cc(OC)c1)C2 (stereo not drawn) [I-43]	101 to 500
C=CC(=O)Nc1ccc(C(F)(F)F)cc1Nc1ncc2c(n1)N(C)C(=O)N(c1cc(OC)cc(OC)c1)C2 [I-50]	> 1000
C=CC(=O)Nc1ccccc1Nc1ncc2c(n1)N(CCF)C(=O)N(c1cc(OC)cc(OC)c1)C2 [I-102]	> 1000
C=CC(=O)NC1CCCCC1Nc1ncc2c(n1)N(CC(F)F)C(=O)N(c1c(F)c(OC)cc(OC)c1F)C2 (stereo not drawn) [I-115]	> 1000
C=CC(=O)Nc1nn(C)cc1Nc1ncc2c(n1)N(C)C(=O)N(c1c(Cl)c(OC)cc(OC)c1Cl)C2 [I-117]	101 to 500
C=CC(=O)Nc1ccccc1Nc1ncc2c(n1)NC(=O)N(c1cc(OC)cc(OC)c1)C2 [I-125]	> 1000
C=CC(=O)Nc1cc(N2CCN(C(=O)CCCC(=O)NCCCOCCOCCOCCCNC(=O)CCCC[C@@H]3SC[C@@H]4NC(=O)N[C@@H]43)CC2)ccc1Nc1ncc2c(n1)N(C)C(=O)N(c1c(Cl)c(OC)cc(OC)c1Cl)C2 [I-127]	> 1000
C=CC(=O)NC1CCCCC1Nc1ncc2c(n1)N(Cc1ccn(C)c(=O)c1)C(=O)N(c1c(Cl)c(OC)cc(OC)c1Cl)C2 (stereo not drawn) [I-132]	> 1000
C=CC(=O)NC1CCCCC1Nc1ncc2c(n1)N(Cc1csc(C)n1)C(=O)N(c1c(Cl)c(OC)cc(OC)c1Cl)C2 (stereo not drawn) [I-137]	501 to 999
C=CC(=O)N[C@H]1COCC[C@H]1Nc1ncc2c(n1)N(C)C(=O)N(c1c(Cl)c(OC)cc(OC)c1Cl)C2 [I-140]	501 to 999
C=CC(=O)Nc1cc(-c2nnn(C)n2)ccc1Nc1ncc2c(n1)N(C)C(=O)N(c1cc(OC)cc(OC)c1)C2 [I-146]	> 1000
C=CC(=O)Nc1cc(C(=O)NC2CCN(C)CC2)ccc1Nc1ncc2c(n1)N(C)C(=O)N(c1cc(OC)cc(OC)c1)C2 [I-151]	> 1000
C=CC(=O)Nc1cc(-c2nnnn2C)ccc1Nc1ncc2c(n1)N(C)C(=O)N(c1c(Cl)c(OC)cc(OC)c1Cl)C2 [I-153]	101 to 500
C=CC(=O)N[C@@H]1COC[C@@H]1Nc1ncc2c(n1)N(C)C(=O)N(c1c(Cl)c(OC)cc(OC)c1Cl)C2 [I-185]	> 1000
C=CC(=O)N[C@H]1COC[C@H]1Nc1ncc2c(n1)N(C)C(=O)N(c1c(Cl)c(OC)cc(OC)c1Cl)C2 [I-186]	< 100
C=CC(=O)NC1COCC1Nc1ncc2c(n1)N(C)C(=O)N(c1c(F)c(OC)cc(OC)c1F)C2 (stereo not drawn) [I-198]	101 to 500
C=CC(=O)NC1CN(c2ccncn2)CC1Nc1ncc2c(n1)N(C)C(=O)N(c1c(Cl)c(OC)cc(OC)c1Cl)C2 (stereo not drawn) [I-201]	501 to 999
C=CC(=O)NC1COCC1Nc1ncc2c(n1)N(C)C(=O)N(c1c(F)c(OC)cc(OC)c1Cl)C2 (stereo not drawn) [I-206]	< 100
C=CC(=O)NC1COCC1Nc1ncc2c(n1)N(Cc1cscn1)C(=O)N(c1c(Cl)c(OC)cc(OC)c1Cl)C2 (stereo not drawn) [I-210]	101 to 500
